We go through 2 substances from patent US9506933B2, “Method of preparing antigen for acquiring anti-hydrophobic peptide antibody” (TOAGOSEI CO., LTD., priority 2011, dated 2016).

Ends that are not written are not given here.

What all share (type): physicochemical
Data set [1] is described as follows: Test of solubility of peptide SPAPP to various solvents (visual transparency). The source says: (1) Powdered purified SPAPP was mixed with various solvents at various concentrations to examine solubility.
The term “soluble” used in the following description means a state in which solvent is visually transparent and “insoluble” means a state in which solvent is visually cloudy.

The nature of data set [2]: Isoelectric point of SPAPP.
A short description of data set [3]: Molecular weight distribution of SPAPP aggregates (centrifugation, spin filters, BCA assay). How it is done: The molecular weight distribution of SPAPP aggregates in the suspension was measured in accordance with the following procedure.
(i) The suspension was centrifuged at 15,000 rpm for five minutes and divided into supernatant and precipitate. This centrifugation causes particles equal to or larger than about 1 μm to precipitate.
(ii) The supernatant was applied to a molecular weight 100,000 cutoff spin filter (Amicon Microcon YM-100) and caused to pass through the filter by centrifugation.
(iii) The flow-through solution of (ii) was applied to a molecular weight 10,000 cutoff spin filter and caused to pass through the filter by centrifugation.
On each stage of the process described above, the protein concentration of the solution was measured by the BCA protein assay (Thermo Fisher Scientific) using BSA as the standard.
The time from suspension of SPAPP in pure water to addition of various surfactants was changed to confirm that the molecular size distribution of aggregates varies depending on the time. For example, in the case of 1% Tween 20, the insoluble fraction (precipitate) was 5% when the surfactants were added immediately after suspension of SPAPP in pure water, 17% when added after 1.5 hours, and 48% when added after 3 hours.

A short description of data set [4]: Molecular size distribution of SPAPP in other nonionic surfactant solutions. Particulars: 1% PEG60 dodecyl ether, Triton X-100 or Nonidet P-40; surfactant added immediately or after 90 minutes. How it is done:
It was examined whether SPAPP forms high-molecular-weight aggregates in other nonionic surfactant solutions. PEG60 dodecyl ether (Polypure), Triton X-100, and Nonidet P-40 were used as surfactants at 1% in each case. As was the case with the method of Example 2, each of the surfactants was used for preparing SPAPP suspension and, after the size fractionation using centrifugation and spin-type molecular weight cutoff filters, 10% SDS was added to and mixed with each of fractions to the final concentration of 1% to dissolve the aggregates. The peptide concentrations of the fractions were measured by the BCA assay and the molecular weight distribution of SPAPP aggregates were summarized as shown in FIGS. 6A and 6B. […] In the histograms, “Ppt” indicates peptides removed by centrifugation, i.e., precipitate, which is considered to have a size of 1 μm or larger and a molecular weight of several hundred kilodaltons or more. “>100 kDa” indicates 100 kDa or more and “<100 kDa” indicates 100 kDa or less.

Data set [5] can be described thus: Particle size of FCG24 and FLF23 in 1% Tween 20 suspensions (Countess / dynamic light scattering). The settings on record: 1% Tween 20 suspension; dynamic light scattering particle size analyser.

With MLPGLALLLLAAWTARA-OH [SPAPP], the Solubility entry is “Soluble” in data set [1] (0.1% trifluoroacetic acid (pH 2.0), SPAPP conc. 7.5 mg/ml); “Soluble” in data set [1] (1% Nonidet P40, SPAPP conc. 1~5 mg/ml); “Soluble” in data set [1] (1% PEG12, SPAPP conc. 1~5 mg/ml); “Soluble” in data set [1] (1% PEG24, SPAPP conc. 1~5 mg/ml); “Soluble” in data set [1] (1% PEG60 docesylether, SPAPP conc. 1~5 mg/ml); “Soluble” in data set [1] (1% SDS (anionic surfactant), SPAPP conc. 1~5 mg/ml). Besides, the Solubility result was “Soluble” in data set [1] (1% TritonX-100, SPAPP conc. 1~5 mg/ml); “Soluble” in data set [1] (1% Tween20, SPAPP conc. 1~5 mg/ml); “Soluble” in data set [1] (1% Tween80, SPAPP conc. 1~5 mg/ml); “Soluble” in data set [1] (1% cholesterol-PEG (NOF CORPORATION NO. CS050), SPAPP conc. 1~5 mg/ml); “Soluble” in data set [1] (1% formic acid (pH 3.0), SPAPP conc. 0.5 mg/ml); “Soluble” in data set [1] (100% DMF, SPAPP conc. 20 mg/ml). Further, the Solubility entry in data set [1] (100% DMS0, SPAPP conc. 50 mg/ml) was “Soluble”; in data set [1] (100% methanol, SPAPP conc. 0.5 mg/ml), “Soluble”; in data set [1] (Phosphate buffer (PBS) (pH 7)), “Insoluble”; in data set [1] (Pure water, SPAPP conc. 0.1 mg/ml), “Insoluble”; in data set [1] (neutral aqueous solutions) it was “completely insoluble”; in data set [1] (neutral aqueous solutions containing polar and nonionic surfactants), “soluble”. Also, the Solubility result in data set [1] (polar organic solvents) and in data set [1] (strongly acidic aqueous solutions) was “soluble” throughout. Moreover, in data set [2], the isoelectric point worked out at 10.9. Moreover, the “insoluble fraction (precipitate)” value in data set [3] (1% Tween 20 added after 1.5 hours in pure water) is given as 17%; in data set [3] (1% Tween 20 added after 3 hours in pure water), 48%; in data set [3] (1% Tween 20 added immediately after suspension of SPAPP in pure water), 5%. Further, the “formation of high-molecular-weight aggregates” value in data set [4] is given as “high-molecular-weight aggregates are formed with any of the surfactants”.

For “FLFCWILMILVVLTFVVGANVEK (listed as Homo sapiens) [FLF23]”, the particle size entry in data set [5] is reported as “particles with sizes larger than the signals of only the 1% Tween 20 solution were confirmed”.
